In US20210246115A1 (Bioimics AB, priority 2017, published 2021):
Values after ≈ are worked out from the molar mass of the structure shown. Structures can show the parent of a compound that is named as a salt. Where two headings read alike, the source gives them in different places.

Legend:
[1] = test system: Enterococcus faecalis (ATCC29212); assay: MIC, broth microdilution (CLSI), Enterococcus faecalis; type: cell-based; conditions: ATCC29212, Table XIV A. Gram-positive bacteria, read-out: E. faecalis ATCC 29212 MIC
[2] = test system: Staphylococcus aureus subsp. aureus (ATCC29213); assay: MIC, broth microdilution (CLSI), Staphylococcus aureus ATCC29213; type: cell-based; conditions: Staphylococcus aureus, read-out: S. aureus ATCC 29213 MIC
[3] = test system: E. coli JW5503 (efflux defective); assay: MIC, E. coli JW5503 (efflux defective); type: cell-based; conditions: Escherichia coli, read-out: E. coli JW5503 (efflux defective) MIC
[4] = test system: Escherichia coli (ATCC25922); assay: MIC, broth microdilution (CLSI), Escherichia coli; conditions: for MIC: Escherichia coli
Method: Initial minimal inhibitory concentration (MIC) tests were made on two bacterial strains: • Escherichia coli (ATCC25922) • Staphylococcus aureus (ATCC25923).
MIC values were determined using the standard broth microdilution procedure based on the guidelines by the Clinical and Laboratory Standards Institute (CLSI). Briefly, the compounds were dissolved in DMSO to 10 mM. They were diluted in cation-adjusted Mueller-Hinton broth (CAMHB) to four times the highest concentration tested. A serial two-fold dilution in CAMHB was done in microdilution plates. The inoculum of bacterial strain to be tested was prepared by making a suspension of colonies from an 18 to 24 hours old plate in CAMHB. The inoculum was diluted so that, after inoculation, each well contained approximately 5×10^5 CFU/mL. To a volume of 50 μl compound in CA 3 an equal volume of inoculum was added. The tray was sealed in a plastic bag and incubated at 35° C. for 16 to 20 hours. To aid in the detection of growth the dye resazurin was added to a final concentration 0.001% and incubated at room temperature for 1 h. Reduction of resazurin, and therefore bacterial growth, was seen as a change from blue to pink.

[5] = test system: Pseudomonas aeruginosa (ATCC27853); assay: MIC, broth microdilution (CLSI), Pseudomonas aeruginosa; type: cell-based; conditions: ATCC27853, Table XIV B. Gram-negative bacteria, read-out: P. aeruginosa ATCC 27853 MIC
M. phlei ATCC 11758 = assay: MIC, M. phlei ATCC 11758; type: cell-based; conditions: Mycolicibacterium phlei, ATCC11758; Table XIV A. Gram-positive bacteria
H. influenzae ATCC 49247 = assay: MIC, H. influenzae ATCC 49247; type: cell-based; conditions: Haemophilus influenzae, ATCC49247; Table XIV B. Gram-negative bacteria
[6] = test system: N. gonorrhoeae ATCC 700825; assay: MIC, N. gonorrhoeae ATCC 700825; type: cell-based; conditions: Neisseria gonorrhoeae, ATCC700825; Table XIV B. Gram-negative bacteria
[7] = test system: P. aeruginosa NTUH974 (MDR); assay: MIC, P. aeruginosa NTUH974 (MDR); type: cell-based; conditions: Pseudomonas aeruginosa; Table XIV B. Gram-negative bacteria; read-out: P. aeruginosa NTUH974 (MDR) MIC
[8] = test system: S. aureus USA300 MRSA BAA-1717; assay: MIC, S. aureus USA300 MRSA BAA-1717; type: cell-based; conditions: Staphylococcus aureus; Table XIV A. Gram-positive bacteria; read-out: S. aureus USA300 MRSA BAA-1717 MIC
S. pneumoniae ATCC 49619 = assay: MIC, S. pneumoniae ATCC 49619; type: cell-based; conditions: Streptococcus pneumoniae, ATCC49619; Table XIV A. Gram-positive bacteria
H. pylori ATCC 43504 = assay: MIC, H. pylori ATCC 43504; type: cell-based; conditions: Helicobacter pylori, ATCC43504; Table XIV B. Gram-negative bacteria
K. pneumoniae ATCC 43816 = assay: MIC, K. pneumoniae ATCC 43816; type: cell-based; conditions: Klebsiella pneumoniae, ATCC43816; Table XIV B. Gram-negative bacteria
A. baumannii ATCC 17978 = assay: MIC, A. baumannii ATCC 17978; type: cell-based; conditions: Acinetobacter baumannii, ATCC17978; Table XIV B. Gram-negative bacteria
[9] = test system: E. coli RNase P RNA, M1 RNA; assay: Inhibition of bacterial RNase P activity, IC50 determination (cleavage of pATSerUG by M1 RNA); type: biochemical; conditions: NI: No inhibition
E. faecium ATCC 700221 = assay: MIC, E. faecium ATCC 700221; type: cell-based; conditions: Enterococcus faecium, ATCC700221; Table XIV A. Gram-positive bacteria; read-out: E. faecium ATCC 700221 MIC
M. fortuitum ATCC 110 = assay: MIC, M. fortuitum ATCC 110; type: cell-based; conditions: Mycolicibacterium fortuitum, ATCC110; Table XIV A. Gram-positive bacteria
[10] = test system: S. aureus MRSA ATCC 33591; assay: MIC, S. aureus MRSA ATCC 33591; type: cell-based; conditions: Staphylococcus aureus; Table XIV A. Gram-positive bacteria; read-out: S. aureus MRSA ATCC 33591 MIC
[11] = test system: Staphylococcus aureus (ATCC25923); assay: MIC, broth microdilution (CLSI), Staphylococcus aureus ATCC25923; conditions: for MIC: Staphylococcus aureus, ATCC25923, read-out: S. aureus ATCC 25923 MIC
[12] = ATCC29213, Table XIV A. Gram-positive bacteria
[13] = ATCC25922, read-out: E. coli ATCC 25922 MIC, Table XIII
[14] = ATCC25922, read-out: E. coli ATCC 25922 MIC, Table XIV B. Gram-negative bacteria

SMILES | MIC [1] [µg/mL] | MIC ([2]; ATCC29213, Table XIII) [µg/mL] | MIC [2, 12] [µg/mL] | MIC [3] [µg/mL] | MIC [4, 13] [µg/mL] | MIC [4, 14] [µg/mL] | MIC [5] [µg/mL] | MIC (M. phlei ATCC 11758) [µg/mL] | MIC (H. influenzae ATCC 49247) [µg/mL] | MIC [6] [µg/mL] | MIC [7] [µg/mL] | MIC [8] [µg/mL] | MIC (S. pneumoniae ATCC 49619) [µg/mL] | MIC (H. pylori ATCC 43504) [µg/mL] | MIC (K. pneumoniae ATCC 43816) [µg/mL] | MIC (A. baumannii ATCC 17978) [µg/mL] | IC50 [9] [µM] | MIC (E. faecium ATCC 700221) [µg/mL] | MIC (M. fortuitum ATCC 110) [µg/mL] | MIC [10] [µg/mL] | further results
Cc1cccc(-c2ccc3c(c2)c(CCCNCC(O)CN)cn3C2CCCCC2)c1 (stereo not drawn) [Compound 385, 1-amino-3-((3-(1-cyclohexyl-5-(m-tolyl)-1H-indol-3-yl)propyl)amino) propan-2-ol] | 2 (≈ 4.77 µM) | 4 (≈ 9.53 µM) | 2 (≈ 4.77 µM) | 2 (≈ 4.77 µM) | 4 (≈ 9.53 µM) | 4 (≈ 9.53 µM) | 4 (≈ 9.53 µM) | 4 (≈ 9.53 µM) | 2 (≈ 4.77 µM) | 2 (≈ 4.77 µM) | 4 (≈ 9.53 µM) | 2 (≈ 4.77 µM) | 8 (≈ 19.1 µM) | 8 (≈ 19.1 µM) | 4 (≈ 9.53 µM) | 4 (≈ 9.53 µM) | 13 | 2 (≈ 4.77 µM) | 2 (≈ 4.77 µM) | 2 (≈ 4.77 µM) | –
Cc1cccc(C(CCNCCCN)c2cn(C3CCCCC3)c3cc(Br)ccc23)c1.Cl.Cl (stereo not drawn) [Compound 357, N1-(3-(6-bromo-1-cyclohexyl-1H-indol-3-yl)-3-(m-tolyl)propyl)propane-1,3-diamine hydrochloride salt] | 2 | 4 | 2 | 4 | 4 | 2 | 4 | 4 | 2 | 2 | 4 | 2 | 8 | 16 | 2 | 4 | 10 | 1 | 4 | 2 | –
Cc1cccc(C(CCNC2CCC(N)CC2)c2cn(CC3CCCCCC3)c3ccccc23)c1 [Compound 245, (1S,4S)-N1-(3-(1-(cycloheptylmethyl)-1H-indol-3-yl)-3-(m-tolyl)propyl)cyclohexane-1,4-diamine hydrochloride salt] | 4 | 4 | 4 | 4 | 4 | 4 | 16 | 2 | 8 | 2 | 16 | 2 | 8 | – | 8 | 4 | 13 | 2 | 2 | 4 | MIC [11]: 1 µg/mL
NCCCNCCC(c1cccc(OC(F)(F)F)c1)c1cn(C2CCCCC2)c2ccccc12 (stereo not drawn) [Compound 348, N1-(3-(1-cyclohexyl-1H-indol-3-yl)-3-(3-(trifluoromethoxy)phenyl)propyl)propane-1,3-diaminesalt] | 2 | 4 | 4 | 2 | 4 | 2 | 8 | 4 | 4 | 2 | 8 | 4 | 8 | 16 | 2 | 4 | 4.5 | 2 | 4 | 4 | –
COc1ccccc1-c1ccc2c(c1)c(CCCN[C@H]1CC[C@H](N)CC1)cn2CC1CCCCC1 [Compound 237, (1S,4S)-N1-(3-(1-(cyclohexylmethyl)-5-(2-methoxyphenyl)-1H-indol-3-yl)propyl)cyclohexane-1,4-diamine hydrochloride salt] | 2 | 4 | 2 | 4 | 4 | 4 | 16 | 2 | 8 | 2 | 16 | 4 | 8 | – | 4 | 8 | 9.8 | 2 | 2 | 4 | MIC [11]: 2 µg/mL
Cc1cccc(-c2ccc3c(c2)c(C2CCCC(NCCCN)C2)cn3C2CCCCC2)c1 (stereo not drawn) [Compound 381, N1-(3-(1-cyclohexyl-5-(m-tolyl)-1H-indol-3-yl)cyclohexyl)propane-1,3-diamine] | 2 (≈ 4.51 µM) | 2 (≈ 4.51 µM) | 2 (≈ 4.51 µM) | 2 (≈ 4.51 µM) | 4 (≈ 9.02 µM) | 2 (≈ 4.51 µM) | 4 (≈ 9.02 µM) | 4 (≈ 9.02 µM) | 2 (≈ 4.51 µM) | 2 (≈ 4.51 µM) | 8 (≈ 18 µM) | 2 (≈ 4.51 µM) | 8 (≈ 18 µM) | 8 (≈ 18 µM) | 4 (≈ 9.02 µM) | 4 (≈ 9.02 µM) | 11 | 1 (≈ 2.25 µM) | 4 (≈ 9.02 µM) | 2 (≈ 4.51 µM) | –
Cl.Cl.NCCCNCCC(c1cn(C2CCCCC2)c2ccccc12)C1CCCCC1 (stereo not drawn) [Compound 371, N1-(3-cyclohexyl-3-(1-cyclohexyl-1H-indol-3-yl)propyl)propane-1,3-diamine hydrochloride] | 4 | 4 | 4 | 2 | 2 | 2 | 8 | 4 | 4 | 2 | 8 | 4 | 8 | 16 | 4 | 4 | – | 2 | 4 | 4 | IC50 ([9]; hydrochloride): 9 µM
NC1CCC(NCCC(c2cccc(OC(F)(F)F)c2)c2cn(CC3CCCCC3)c3ccccc23)CC1 [Compound 173, (1S,4S)-N1-(3-(1-(cyclohexylmethyl)-1H-indol-3-yl)-3-(3-(trifluoromethoxy)phenyl)propyl)cyclohexane-1,4-diamine hydrochloride salt] | 2 | 2 | 2 | 4 | 4 | 4 | 16 | 1 | 4 | 2 | 16 | 2 | 8 | – | 4 | 4 | 3 | 2 | 2 | 2 | MIC [11]: 2 µg/mL
N[C@H]1CC[C@H](NC2CCC(c3cn(CC4CCCCC4)c4ccc(Br)cc34)CC2)CC1 (single isomer, unassigned) [Compound 266, (1r,4r)-N1-(4-(5-bromo-1-(cyclohexylmethyl)-1H-indol-3-yl)cyclohexyl)cyclohexane-1,4-diamine hydrochloride salt] | 2 | 2 | 4 | 4 | – | 4 | 8 | 2 | 4 | 2 | 16 | 2 | 8 | – | 4 | 8 | – | 2 | 2 | 2 | E. coli ATCC 25922 MIC ([4]; Table XIII): 2 µg/mL; IC50 ([9]; hydrochloride salt): 8.5 µM; S. aureus ATCC 25923 MIC ([11]; Table XIII): 2 µg/mL
